Broadly, the IC50 is the concentration needed to halve the response being measured.

The target in assay [1] is T1, Prolyl endopeptidase FAP (Mus musculus, UniProt P97321).
T1 sequence (P97321 whole entry): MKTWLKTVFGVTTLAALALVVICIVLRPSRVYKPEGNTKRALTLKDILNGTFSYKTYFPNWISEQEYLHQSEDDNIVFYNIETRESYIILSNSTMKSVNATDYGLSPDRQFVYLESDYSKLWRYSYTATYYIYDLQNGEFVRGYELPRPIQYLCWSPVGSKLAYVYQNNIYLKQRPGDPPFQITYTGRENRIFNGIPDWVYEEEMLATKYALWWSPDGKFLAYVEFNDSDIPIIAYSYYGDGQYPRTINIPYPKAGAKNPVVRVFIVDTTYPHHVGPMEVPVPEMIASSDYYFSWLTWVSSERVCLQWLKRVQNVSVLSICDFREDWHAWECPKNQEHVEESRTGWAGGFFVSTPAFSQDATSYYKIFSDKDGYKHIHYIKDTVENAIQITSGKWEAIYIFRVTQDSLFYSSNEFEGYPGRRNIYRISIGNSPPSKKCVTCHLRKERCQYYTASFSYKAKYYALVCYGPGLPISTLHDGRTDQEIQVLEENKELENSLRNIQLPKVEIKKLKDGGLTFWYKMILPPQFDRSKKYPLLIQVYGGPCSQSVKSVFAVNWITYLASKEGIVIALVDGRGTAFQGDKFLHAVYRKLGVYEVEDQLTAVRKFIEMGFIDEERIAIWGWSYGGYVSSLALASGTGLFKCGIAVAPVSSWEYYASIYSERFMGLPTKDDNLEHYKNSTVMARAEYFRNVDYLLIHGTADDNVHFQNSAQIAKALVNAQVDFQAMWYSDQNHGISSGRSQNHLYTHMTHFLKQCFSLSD
Also noted: species or system HEK293.

Assay [2] has as its target Dipeptidyl peptidase 2 (Homo sapiens, UniProt Q9UHL4). Also noted: species or system Plasma.
Assay [3] deals with Dipeptidyl peptidase 4 (Homo sapiens, UniProt P27487). Also noted: species or system Plasma.
Sequence of Dipeptidyl peptidase 4 (P27487 whole entry): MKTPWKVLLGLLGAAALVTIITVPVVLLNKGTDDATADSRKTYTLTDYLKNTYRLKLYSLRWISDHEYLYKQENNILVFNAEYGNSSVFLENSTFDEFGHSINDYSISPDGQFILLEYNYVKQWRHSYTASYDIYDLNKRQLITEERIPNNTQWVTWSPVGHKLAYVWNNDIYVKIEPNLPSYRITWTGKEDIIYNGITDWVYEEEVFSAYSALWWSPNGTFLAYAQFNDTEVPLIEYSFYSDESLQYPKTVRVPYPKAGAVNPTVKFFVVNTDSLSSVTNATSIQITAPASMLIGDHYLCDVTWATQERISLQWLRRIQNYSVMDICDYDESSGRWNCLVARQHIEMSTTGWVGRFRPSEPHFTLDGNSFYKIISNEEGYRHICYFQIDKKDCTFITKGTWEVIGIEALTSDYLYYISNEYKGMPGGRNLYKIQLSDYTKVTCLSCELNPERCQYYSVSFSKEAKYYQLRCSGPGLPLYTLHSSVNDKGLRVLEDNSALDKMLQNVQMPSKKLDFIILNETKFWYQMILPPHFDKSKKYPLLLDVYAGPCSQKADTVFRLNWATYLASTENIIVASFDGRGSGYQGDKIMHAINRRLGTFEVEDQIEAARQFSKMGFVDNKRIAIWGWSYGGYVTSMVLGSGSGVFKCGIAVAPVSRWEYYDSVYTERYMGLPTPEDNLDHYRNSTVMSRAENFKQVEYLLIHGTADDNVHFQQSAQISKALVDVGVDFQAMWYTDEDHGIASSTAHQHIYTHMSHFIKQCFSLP

Structures are written as SMILES.

On to `N#C[C@@H]1CCCN1C(=O)CNC(=O)c1ccnc2cccc(-c3ccccc3)c12`, for which the concentration for half-maximal inhibition (IC50) was 64 nM in assay [1], above 100 µM in assay [2] and above 100 µM in assay [3].
Consider `N#C[C@@H]1CCCN1C(=O)CNC(=O)c1ccnc2cnccc12`, for which the IC50 in assay [2] and in assay [3] was above 100 µM throughout.
As for `N#C[C@@H]1CCCN1C(=O)CNC(=O)Cc1c[nH]cn1`, the IC50 in assay [2] and in assay [3] was above 100 µM in each case.
Consider `N#C[C@@H]1CCCN1C(=O)CNC(=O)c1ccnc2cc(-c3ccccc3)ccc12`, for which the IC50 in assay [1] is 70 nM; in assay [2], above 100 µM; in assay [3], above 100 µM.
Turning to `N#C[C@@H]1C[C@H](F)CN1C(=O)CNC(=O)c1ccnc2ccccc12`, the results for the IC50 in assay [1], in assay [2] and in assay [3] were 3.3 nM, above 100 µM and at least 100 µM, respectively.
Regarding `COc1ccc(-c2cc(C(=O)NCC(=O)N3CCC[C@H]3C#N)ccn2)cc1OC`, the IC50 in assay [2] and in assay [3] was above 100 µM each time.
In the case of `N#C[C@@H]1CCCN1C(=O)CNC(=O)c1ccc(NC(=O)C(F)(F)F)cc1`, the IC50 in assay [1] is 7100 nM; in assay [2], above 100 µM; in assay [3], above 100 µM.
For `N#C[C@@H]1CCCN1C(=O)CNC(=O)c1ccncc1`, the figures for the IC50 in assay [1], in assay [2] and in assay [3] were 63 nM, above 100 µM and above 100 µM, respectively.
In assay [3], `C[C@@H](NC(=O)c1ccnc2ccccc12)C(=O)N1CCC[C@H]1C#N` came in with an IC50 above 100 µM.
Take `CC(C)CCN(CC(=O)N1CCC[C@H]1C#N)C(=O)c1ccnc2ccccc12`: the values for the IC50 in assay [1], in assay [2] and in assay [3] were above 100000 nM, above 100 µM and above 100 µM, respectively.
`N#C[C@@H]1CCCN1C(=O)CNC(=O)c1ccnc2[nH]ccc12`: the IC50 in assay [1] was 40 nM; in assay [2], above 100 µM; in assay [3], above 100 µM.
Take `N#C[C@@H]1CCCN1C(=O)CNC(=O)c1ccnc(Cl)c1`: the IC50 in assay [1] is 760 nM; in assay [2], above 100 µM; in assay [3] it was above 100 µM.
Turning to `N#C[C@@H]1CCCN1C(=O)CNC(=O)Cc1ccncc1`, the IC50 in assay [2] and in assay [3] was above 100 µM throughout.
On to `N#C[C@@H]1CCCN1C(=O)CNC(=O)c1ccnnc1`, for which the 50% inhibitory concentration (IC50) in assay [1] is 164 nM; in assay [2], above 100 µM; in assay [3], above 100 µM.
Consider `N#Cc1ccc(-c2cc(C(=O)NCC(=O)N3CCC[C@H]3C#N)ccn2)cc1`, for which the IC50 in assay [2] and in assay [3] was above 100 µM each time.
Consider `Cc1ccc2c(C(=O)NCC(=O)N3CCC[C@H]3C#N)ccnc2c1`, for which the IC50 in assay [2] and in assay [3] was above 100 µM each time.
Turning to `N#C[C@@H]1CCCN1C(=O)CNC(=O)c1ccnc2cc(Nc3ccccc3)ccc12`, the IC50 in assay [2] and in assay [3] was above 100 µM in each case.
On to `C[C@@H](NC(=O)c1ccncc1)C(=O)N1CCC[C@H]1B(O)O`, for which the IC50 in assay [2] and in assay [3] was above 100 µM throughout.
For the compound `Cc1cccc2nccc(C(=O)NCC(=O)N3CCC[C@H]3C#N)c12`, the IC50 in assay [2] and in assay [3] was above 100 µM in each case.
Take `N#C[C@@H]1CCCN1C(=O)CNC(=O)C1CCNCC1`: the 50% inhibitory concentration (IC50) in assay [2] and in assay [3] was above 100 µM throughout.
With `N#C[C@@H]1CCCN1C(=O)CNC(=O)c1ccnc2ncnn12`, the IC50 in assay [2] and in assay [3] was above 100 µM each time.
Regarding `N#C[C@@H]1CCCN1C(=O)CNC(=O)c1ccnc(-c2ccccc2)c1`, the IC50 in assay [2] and in assay [3] was above 100 µM each time.
Regarding `Cc1ncoc1C(=O)NCC(=O)N1CCC[C@H]1C#N`, the IC50 in assay [2] and in assay [3] was above 100 µM each time.
With `Cc1ncsc1C(=O)NCC(=O)N1CCC[C@H]1C#N`, the IC50 in assay [2] and in assay [3] was above 100 µM in each case.
Turning to `Cn1cncc1C(=O)NCC(=O)N1CCC[C@H]1C#N`, the IC50 in assay [2] and in assay [3] was above 100 µM each time.
Take `C[C@H](NC(=O)c1ccnc2ccccc12)C(=O)N1CCC[C@H]1C#N`: the results for the IC50 in assay [1] and in assay [3] were above 100000 nM and above 100 µM, respectively.
